Reference: patent publication US20230096028A1, “BICYCLIC HETEROCYCLYL COMPOUNDS AND USES THEREOF” (Revolution Medicines, Inc., priority 2019, published 2023)
Like-named read-outs stand apart in the source and are kept apart here.

Columns and labels:
[1] = tested on: PC-9 cells (EGFR Ex19Del); test: Potency Assay: pERK (SOS1 pERK IC50 Assay, AlphaLISA SureFire Ultra p-ERK1/2); type: cell-based; conditions: Homo sapiens, read-out: SOS1 pERK IC50
Method: The purpose of this assay is to measure the ability of test compounds to inhibit SOS1 function in cells. SOS1 activates RAS proteins by catalyzing the conversion of RAS GDP to RAS GTP in response to receptor tyrosine kinase activation. […] The procedure described below measures the level of cellular pERK in response to test compounds in PC-9 cells (EGFR Ex19Del).
PC-9 cells were grown and maintained using media and procedures recommended by the ATCC. On the day prior to compound addition, cells were plated in 384-well cell culture plates (40 μL/well) and grown overnight in a 37° C., 5% CO2 incubator. Test compounds were prepared in 10, 3-fold dilutions in DMSO, with a top concentration of 10 mM. On the day of the assay, 40 nL of test compound was added to each well of cell culture plate using an Echo550 liquid handler (LabCyte). Concentrations of test compound were tested in duplicate with highest test concentration being 10 μM. After compound addition, cells were incubated for 1 hour at 37° C., 5% CO2. Following incubation, culture medium was removed and cells were washed once with phosphate buffered saline.
Cellular pERK level was determined using the AlphaLISA SureFire Ultra p-ERK1/2 Assay Kit (PerkinElmer). Cells were lysed in 25 μL lysis buffer, with shaking at 600 RPM at room temperature for 15 minutes. Lysate (10 μL) was transferred to a 384-well Opti-plate (PerkinElmer) and 5 μL acceptor mix was added. The plate was centrifuged at 1000 RPM for 1 minute, and incubated in the dark for 2 hours. Following this incubation, 5 μL of donor mix was added, the plate was sealed and centrifuged at 1000 RPM for 1 minute, and the mixture was incubated for 2 hours at room temperature. Signal was read on an Envision plate reader (PerkinElmer) using standard AlphaLISA settings. Analysis of raw data was carried out in Excel (Microsoft) and Prism (GraphPad). Signal was plotted vs. the decadal logarithm of compound concentration, and IC50 was determined by fitting a 4-parameter sigmoidal concentration response model.

[2] = target: T1, SOS1 catalytic domain (residues 564-1049) (Homo sapiens, UniProt Q07889); test: Mode of Action Assay: inhibition of SOS1 nucleotide exchange activity (SOS1 TR-FRET IC50 Assay)
T1 sequence (Q07889 564-1049): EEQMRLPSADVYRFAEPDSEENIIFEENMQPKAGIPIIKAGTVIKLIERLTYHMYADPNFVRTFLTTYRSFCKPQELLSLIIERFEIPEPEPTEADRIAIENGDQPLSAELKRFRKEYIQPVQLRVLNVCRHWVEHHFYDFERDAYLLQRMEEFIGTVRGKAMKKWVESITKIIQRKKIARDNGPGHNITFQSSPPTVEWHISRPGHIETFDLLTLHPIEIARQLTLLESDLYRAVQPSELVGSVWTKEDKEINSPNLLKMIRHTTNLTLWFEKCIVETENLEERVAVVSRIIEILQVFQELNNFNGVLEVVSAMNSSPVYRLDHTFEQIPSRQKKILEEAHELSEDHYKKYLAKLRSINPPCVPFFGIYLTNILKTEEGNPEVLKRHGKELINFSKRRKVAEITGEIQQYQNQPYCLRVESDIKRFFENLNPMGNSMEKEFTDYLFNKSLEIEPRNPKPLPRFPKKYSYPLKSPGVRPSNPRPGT

[3] = PC-9 cells (EGFR Ex19Del), 1 hour incubation, AlphaLISA p-ERK1/2

Structure (SMILES) | IC50 ([1]; PC-9, 1 h) [µM] | IC50 [2] [µM] | IC50 [1, 3] [µM]
C[C@@H](Nc1nc(Cl)nc2c1CN(C(=O)N1CCOCC1)C2)c1cccc(C(F)(F)COC2CC2)c1 [Example 531, [2-chloro-4-[[(1R)-1-[3-[2-(cyclopropoxy)-1,1-difluoro-ethyl]phenyl]ethyl]amino]-5,7-dihydropyrrolo[3,4-d]pyrimidin-6-yl]-morpholino-methanone] | < 1 | < 1 | –
COC1CCC(C(=O)N2CCc3nc(Cl)nc(N[C@H](C)c4cc(N)cc(C(F)(F)F)c4)c3C2)C1 (stereo partly drawn) [Example 199] | – | > 1 | > 1
C[C@@H](Nc1nc(Cl)nc2c1CN(C(=O)[C@H]1[C@@H]3CNC[C@@H]31)C2)c1cc(N)cc(C(F)(F)F)c1 [Example 269] | – | < 1 | > 1
COc1ccc(C(=O)N2CCc3nc(Cl)nc(N[C@H](C)c4cc(N)cc(C(F)(F)F)c4)c3C2)nc1 [Example 245] | – | > 1 | > 1
C[C@@H](Nc1nc(Cl)nc2c1CN(C(=O)N1CCOCC1)C2)c1csc(C(F)F)c1F [Example 481, 2-chloro-N-[(1R)-1-[5-(difluoromethyl)-4-fluorothiophen-3-yl]ethyl]-6-(morpholine-4-carbonyl)-5H,6H,7H-pyrrolo[3,4-d]pyrimidin-4-amine] | > 1 | > 1 | –
COC(F)(F)c1cccc([C@@H](C)Nc2nc(Cl)nc3c2CN(C(=O)N2CCOCC2)C3)c1 [Example 475, 2-chloro-N-[(1R)-1-{3-[difluoro(methoxy)methyl]phenyl}ethyl]-6-(morpholine-4-carbonyl)-5H,6H,7H-pyrrolo[3,4-d]pyrimidin-4-amine] | – | > 1 | > 1
C[C@@H](Nc1nc(Cl)nc2c1CN(C(=O)c1ncccc1C(F)(F)F)CC2)c1cc(N)cc(C(F)(F)F)c1 [Example 253] | – | > 1 | –
COC1(C(=O)N2CCc3nc(Cl)nc(N[C@H](C)c4cc(N)cc(C(F)(F)F)c4)c3C2)CCCOC1 (stereo partly drawn) [Example 224] | – | > 1 | > 1
Cc1nc2c(c(N[C@H](C)c3cc(N)cc(C(F)(F)F)c3)n1)CCN(C(=O)N1CCOCC1)CC2 [Example 112, N-[(1R)-1-[3-amino-5-(trifluoromethyl)phenyl]ethyl]-2-methyl-7-(morpholine-4-carbonyl)-5H,6H,7H,8H,9H-pyrimido[4,5-d]-azepin-4-amine] | – | > 1 | > 1
CC(Nc1nc(Cl)nc2c1CN(C(=O)N1CCOCC1)C2)c1cccc(C(F)(F)F)c1Cl (stereo not drawn) [Example 498] | – | > 1 | < 1
COC1(C(=O)N2CCc3nc(Cl)nc(N[C@H](C)c4cc(N)cc(C(F)(F)F)c4)c3C2)CC1 [Example 201] | – | > 1 | > 1
Cc1nc2c(c(N[C@H](C)c3cc(N)cc(C(F)(F)F)c3)n1)CN(C(=O)C1CCN(C)CC1)C2 [Example 109, [4-[[(1R)-1-[3-amino-5-(trifluoromethyl)phenyl]ethyl]amino]-2-methyl-5,7-dihydropyrrolo[3,4-d]pyrimidin-6-yl]-(1-methyl-4-piperidyl)methanone] | > 1 | < 1 | –
CC(Nc1nc(Cl)nc2c1CN(C(=O)N1CCOCC1)C2)c1nccc(C(F)F)c1F (stereo not drawn) [Example 521, 2-chloro-N-{1-[4-(difluoromethyl)-3-fluoropyridin-2-yl]ethyl}-6-(morpholine-4-carbonyl)-5H,6H,7H-pyrrolo[3,4-d]pyrimidin-4-amine] | > 1 | > 1 | –
CC(Nc1nc(Cl)nc2c1CN(C(=O)N1CCOCC1)C2)c1cccc(S(N)(=O)=O)c1 (stereo not drawn) [Example 535, 3-[1-[[2-chloro-6-(morpholine-4-carbonyl)-5,7-dihydropyrrolo[3,4-d]pyrimidin-4-yl]amino]ethyl]benzenesulfonamide] | > 1 | > 1 | –
C[C@@H](Nc1nc(Cl)nc2c1CN(C(=O)N1CCNC3CC31)C2)c1cccc(C(F)(F)F)c1 (stereo partly drawn) [Example 379] | – | < 1 | < 1
COC1(C(=O)N2CCc3nc(Cl)nc(N[C@H](C)c4cc(N)cc(C(F)(F)F)c4)c3C2)CCC1 [Example 203] | – | > 1 | > 1
C[C@@H](Nc1nc(Cl)nc2c1CN(C(=O)C1(CO)CC1)CC2)c1cc(N)cc(C(F)(F)F)c1 [Example 206] | – | > 1 | > 1

Structure (SMILES) | IC50 ([1]; PC-9, 1 h) [µM] | IC50 [2] [µM] | IC50 [1, 3] [µM]
CC(Nc1nc(Cl)nc2c1CN(C(=O)N1CCOCC1)C2)c1cccc2c1C[C@@H](CO)C2 (stereo in doubt) [Example 465, (2-chloro-4-(((R)-1-((S)-2-(hydroxymethyl)-2,3-dihydro-1H-inden-4-yl)ethyl)amino)-5,7-dihydro-6H-pyrrolo[3,4-d]pyrimidin-6-yl)(morpholino)methanone] | – | > 1 | > 1
C[C@@H](Nc1nc(Cl)nc2c1CN(C(=O)C1(O)CCOCC1)CC2)c1cc(N)cc(C(F)(F)F)c1 [Example 189] | – | > 1 | > 1
C[C@@H](Nc1nc(Cl)nc2c1CN(S(=O)(=O)c1ccccn1)CC2)c1cc(N)cc(C(F)(F)F)c1 [Example 459] | – | – | < 1
C[C@@H](Nc1nc(Cl)nc2c1CC1(CC2)OCCO1)c1cc(N)cc(C(F)(F)F)c1 [Example 514, N-[(1R)-1-[3-amino-5-(trifluoromethyl)phenyl]ethyl]-2′-chloro-7′,8′-dihydro-5′H-spiro[1,3-dioxolane-2,6′-quinazoline]-4′-amine] | – | > 1 | –
C[C@@H](Nc1nc(Cl)nc2c1CN(C(=O)C1CN(C)CCO1)C2)c1cccc(C(F)(F)F)c1 (stereo partly drawn) [Example 277] | – | – | > 1
C[C@@H](Nc1nc(Cl)nc2c1CN(C(=O)N1CCOc3ccncc31)C2)c1cccc(C(F)(F)F)c1 [Example 373] | – | < 1 | –
C[C@@H](Nc1nc(Cl)nc2c1CN(C(=O)C1(c3ncccn3)CC1)CC2)c1cc(N)cc(C(F)(F)F)c1 [Example 191] | – | > 1 | –
C[C@@H](Nc1nc(Cl)nc2c1CN(C(=O)[C@]13CCC[C@H]1C3(F)F)CC2)c1cc(N)cc(C(F)(F)F)c1 [Example 217] | – | > 1 | –
COc1ccc(C2(C(=O)N3CCc4nc(Cl)nc(N[C@H](C)c5cc(N)cc(C(F)(F)F)c5)c4C3)COC2)cc1 [Example 192] | – | > 1 | –
C[C@@H](Nc1nc(Cl)nc2c1CN(C(=O)c1cccc(C(F)(F)F)n1)CC2)c1cc(N)cc(C(F)(F)F)c1 [Example 251] | – | – | > 1
COc1ccc(C(=O)N2CCc3nc(Cl)nc(N[C@H](C)c4cc(N)cc(C(F)(F)F)c4)c3C2)nc1OC [Example 244] | – | – | > 1
C[C@@H](Nc1nc(Cl)nc2c1CN(C(=O)N1CCOCC1)C2)c1cc(F)cc(C(F)(F)F)c1 [Example 511, 2-chloro-N-[(1R)-1-[3-fluoro-5-(trifluoromethyl)phenyl]ethyl]-6-(morpholine-4-carbonyl)-5H,6H,7H-pyrrolo[3,4-d]pyrimidin-4-amine] | – | > 1 | –
C[C@@H](Nc1nc(Cl)nc2c1CN(C(=O)C1(N3CCOCC3)CCC1)CC2)c1cc(N)cc(C(F)(F)F)c1 [Example 207] | – | > 1 | –
COC1(C(=O)N2CCc3nc(Cl)nc(N[C@H](C)c4cc(N)cc(C(F)(F)F)c4)c3C2)CCOC1 (stereo partly drawn) [Example 198] | – | > 1 | –
Cc1cc([C@@H](C)Nc2nc(Cl)nc3c2CN(C(=O)N2CCOCC2)C3)cc(C(F)(F)F)c1 [Example 515, 2-chloro-N-[(1R)-1-[3-methyl-5-(trifluoromethyl)phenyl]ethyl]-6-(morpholine-4-carbonyl)-5H,6H,7H-pyrrolo[3,4-d]pyrimidin-4-amine] | – | > 1 | –
C[C@@H](Nc1nc(Cl)nc2c1CCN(CC1CCOC1)CC2)c1cc(N)cc(C(F)(F)F)c1 (stereo partly drawn) [Example 113, N-[(1R)-1-[3-amino-5-(trifluoromethyl)phenyl]ethyl]-2-chloro-7-(oxolan-3-ylmethyl)-5H,6H,7H,8H,9H-pyrimido[4,5-d]aze-pin-4-amine] | – | > 1 | –
